{"source": "patent US5792784A", "about": "“Coupling product obtained from histamine and an amino acid” (Babizhayev; Marc, priority 1993, dated 1998)", "key": {"[1]": {"assay": "Inhibition of deoxyribose oxidation (superoxide from xanthine oxidase/hypoxanthine; TBA/MDA detection)", "type": "biochemical", "settings": "10 mM", "excerpt": "Several in vitro tests have been carried out in order to reveal the evoked different antioxidant properties.\nExperimental procedure described by J. M. C. Gutteridge in Biochemistry Journal, vol. 224 (1984), p. 761-767: oxidation substrate: deoxyribose\nSuperoxide anions production system: xanthine oxidase/hypoxanthine detection: thiobarbituric acid/malondialdehyde (MDA)"}, "lens": {"system": "lens", "assay": "Cataract patients: lens opacity (slit lamp, retroillumination, image analysis)", "type": "in vivo", "settings": "for decrease of the opacity: 24 months, groups 2 and 3; for integration peak of opacity distribution: posterior subcapsular cataract", "excerpt": "(§1) The study has been designed for a prospective evaluation of the modifications of the lens opacity in patients effected by cataract. All the patients have undergone an initial ophtalmic examination. It involved the making of the medical historical record of the patient, a measurement of the visual acuity at a maximum correction, direct or indirect ophtalmoscopies, an evaluation of the opacities with the slit lamp, a clinical grading of the lens after maximal mydriasis, a classification according to the cataract type, and lens pictures by retroillumination. Moreover, samples of blood have been taken at the beginning, then in follow-up for chemical analysis.\nChanges of the lens have been examined in all the patients by using the microscope with the Zeiss slit lamp. The photographic observations obtained with this technique included a base line examination, intermediate studies and a final examination at the end of the treatment period.\nIn using the technique of the slit lamp, the lens has been pictured layer by layer in order to visualize all the anterior segment of the eye, from the cornea to the posterior capsule.\nWith this technique, Red reflex examination has been carried out, according to a conventional retroillumination. Then lens modifications were graded according to the anatomical location and the importance of the modification.\nCortical opacities have been graded and pictured in retroillumination. Afterwards this film has been submitted to a measurement of linear densitometry with a microdensitometer. The opacity values have been reported in relative value using a standard scale of opacification. The cortical opacities measurement have been rated also taking into account of the total surface exposed to radiation. The posterior subcapsular opacities have been measured in retroillumination by the longest height, from the lower part to the top and by the greatest width, using the scale of the slit lamp.\nPictures of the lens also were taken on nuclear and cortical opacities and later on they were graded.\nThe different negatives taken with the slit lamp have been analyzed with a \"plumbicon tube\". This equipment allows one to transpose with a large accuracy a measurement of intensity of light into an electric signal which is integrated and stored in an analysis system of computerized image. With the help of a specific program, the lens image in that manner \"digitized\" could be reproduced as a graph in two or three dimensions.\nA detailed description of this method of image processing is given in : Babizhayev M. A. Zhukotskii A. V. and Sologub A. A. (1992), \"Image analysis of the lens opacities induced in developing chick embryo by glucocorticoid\", Exp. Eye Res. Vol. 55, p.521-537.\nThe represented histograms show in a concrete example the interest of such evaluation method. A case of posterior subcapsular cataract is studied before and after 21/2 months of treatment following topical applications with eye drops containing 1% of β-alanyl-histamine. The histograms give the quantitative distribution of opacities with an integration peak of 58.44±18.14 before treatment, and of 44.95±8.77 after 21/2 months of treatment.\n(§2) Following the protocol described above, we determine the values of the optic density of the lens according to its opacity as well as the visual acuity, and the whole for 24 months. Considering these two parameters, we obtain tables giving results concerning the modification of the visual acuity at the end of 24 months in Tables 1 and 2, and the results concerning the modification of the visual opacity at the end of 24 months in Tables 3 and 4."}, "[2]": {"assay": "Inhibition of linoleic acid peroxidation (Fe/ascorbic acid; TBA/MDA)", "type": "biochemical", "settings": "25 mM (mixture: 25 mM each), linoleic acid 0.25 mg/ml", "protocol": "oxidation substrate: linoleic acid (0.25 mg/ml), free radicals generating system: Fe/ascorbic acid detection: thiobarbituric acid (TBA)/malondialdehyde (MDA)"}, "[3]": {"assay": "Inhibition of phosphatidylcholine liposome peroxidation (Fe/ascorbic acid; TBA/MDA)", "settings": "10 mM; control 4.4", "quoted_text": "oxidation substrate: phosphatidylcholine liposomes\nfree radicals generating system : Fe/ascorbic acid detection: thiobarbituric acid (TBA)/malondialdehyde (MDA)"}, "[4]": {"assay": "Tests with peroxidized compounds: reducing behaviour", "type": "biochemical"}, "[5]": {"assay": "\"Peroxidase\" activity: reduction of 13-monoperoxide of linoleic acid (L-OOH)", "type": "biochemical", "settings": "for \"peroxidase\" activity: 13-monoperoxide linoleic acid 0.5 mM, control 36.7", "protocol": "Lipid peroxides evolution is monitored with the help of 3 methods:\n1°) spectrophotometric measure at 233 nm\n(O. S. Privett, C. Nickell, W. O. Lundberg, and P. D. Bayer, dans J.Am.Oil Chem. Soc, Vol 32 (1955), P.505-511\n2°) Iodometric dosage: M.Hicks' and J. M. Gebicki's method, Analytical Biochemistry, vol 99 (1979), p 249-253.\n3°) Chromatography on silica gel plate (hexane/ether/acetic acid 8/7/0.1).\n(a) 13-monoperoxide linoleic acid 0.5 mM without reducing agent (preparation according to H. W. Gardner's method Lipids, Vol.10 (1975), p. 248-252)."}, "cataract": {"system": "cataract", "assay": "Cataract patients: modification of the visual acuity at the end of 24 months", "type": "in vivo", "settings": "24 months", "excerpt": "This example concerns the utilization of the β-alanyl-histamine to treat patients affected by cataract.\nas §1\nThe general view has allowed to establish the initial state of patients before the treatment (definition of \"base line\").\nFollow-up of ophtalmic examinations were carried out every two weeks for two months, then every month. They included maximum visual acuity after correction, direct or indirect ophtalmoscopies, a slit lamp examination, and after a maximum dilation of the pupil (excluding patients with primary open-angle glaucoma), a clinical lens grading, a classification of the cataract. Pictures also have been taken on lens observed by retroillumination or with the slit lamp.\nIn this study, differents groups have been determined, to be seen:\nA group reference 1, with non-treated patients (5 patients, 7 eyes) […]\nA group 3, has been submitted to the same treatment than the group 2, stimulated by an \"attack type of treatment\" during the first two weeks: 2 subcon-junctival junctival injections twice a week of 0.10 to 0.15 ml of the saline defined for the group 2 (3 patients, 4 eyes).\nA group 4, which was given a local dose by way of an eye drop of isotonic saline twice a day (5 patients 7 eyes), the group 4 being like the group 1, a reference group.\nas §2"}, "[6]": {"settings": "after 21/2 months, eye drops 1%"}, "[7]": {"settings": "groups 2 and 3, start acuity 20/30"}, "[8]": {"settings": "groups 2 and 3, start acuity 20/40"}, "[9]": {"settings": "groups 2 and 3, start acuity 20/50"}, "[10]": {"settings": "groups 2 and 3, start acuity 20/70"}, "[11]": {"settings": "groups 2 and 3, start acuity 20/100"}, "[12]": {"settings": "groups 2 and 3, total of 19 eyes"}}}
{"smiles": "NCCC(=O)NCCc1c[nH]cn1", "note": "[β-alanyl-histamine]", "values": [{"measurement": "% inhibition of deoxyribose oxidation", "setting": "[1]", "value": 49, "unit": "%"}, {"measurement": "decrease of the opacity", "setting": "lens; modification 5 @ 9%", "value": 3}, {"measurement": "decrease of the opacity", "setting": "lens; modification 10 @ 14%", "value": 5}, {"measurement": "decrease of the opacity", "setting": "lens; modification 15 @ 19%", "value": 5}, {"measurement": "decrease of the opacity", "setting": "lens; modification 20 @ 24%", "value": 1}, {"measurement": "decrease of the opacity", "setting": "lens; modification +25%", "value": 5}, {"measurement": "decrease of the opacity", "setting": "lens; total", "value": 19}, {"measurement": "opacities in the posterior subcapsular region of the lens", "setting": "lens; [6]", "value": "partial regression of the opacities"}, {"measurement": "integration peak of opacity distribution", "setting": "lens; [6]", "value": "44.95±8.77"}, {"measurement": "integration peak of opacity distribution", "setting": "lens; before treatment", "value": "58.44±18.14"}, {"measurement": "% inhibition", "setting": "[2]", "value": 47, "unit": "%"}, {"measurement": "MDA per mg of linoleic acid", "setting": "[2]; control 7.95", "value": "4.25 mol MDA per mg of linoleic aci"}, {"measurement": "MDA per mg of phospholipids", "setting": "[3]", "value": "2.5 mol MDA per mg of phospholipid"}, {"measurement": "reducing behaviour towards peroxidized compounds", "setting": "[4]", "value": "behaves in a way comparable to β-alanyl-histidine or carnosine"}, {"measurement": "\"peroxidase\" activity", "setting": "[5]; 10 mM", "value": "138.1 mol of L-OOH reduced/hour"}, {"measurement": "\"peroxidase\" activity", "setting": "[5]; 20 mM", "value": "187.5 mol of L-OOH reduced/hour"}, {"measurement": "\"peroxidase\" activity with the adding of EDTA", "setting": "[5]; EDTA 0.5 mM", "value": "completely inhibited"}, {"measurement": "improvement of the visual acuity + (number of eyes)", "setting": "cataract; groups 2 and 3, start acuity 20/25", "value": 1, "unit": "eyes"}, {"measurement": "improvement of the visual acuity + (number of eyes)", "setting": "cataract; [7]", "value": 1, "unit": "eyes"}, {"measurement": "improvement of the visual acuity ++ (number of eyes)", "setting": "cataract; [7]", "value": 4, "unit": "eyes"}, {"measurement": "improvement of the visual acuity + (number of eyes)", "setting": "cataract; [8]", "value": 1, "unit": "eyes"}, {"measurement": "improvement of the visual acuity ++ (number of eyes)", "setting": "cataract; [8]", "value": 3, "unit": "eyes"}, {"measurement": "improvement of the visual acuity + (number of eyes)", "setting": "cataract; [9]", "value": 1, "unit": "eyes"}, {"measurement": "improvement of the visual acuity ++ (number of eyes)", "setting": "cataract; [9]", "value": 1, "unit": "eyes"}, {"measurement": "improvement of the visual acuity + (number of eyes)", "setting": "cataract; [10]", "value": 1, "unit": "eyes"}, {"measurement": "improvement of the visual acuity ++ (number of eyes)", "setting": "cataract; [10]", "value": 1, "unit": "eyes"}, {"measurement": "improvement of the visual acuity ++ (number of eyes)", "setting": "cataract; [11]", "value": 1, "unit": "eyes"}, {"measurement": "improvement of the visual acuity +++ (number of eyes)", "setting": "cataract; [11]", "value": 2, "unit": "eyes"}, {"measurement": "regression of the visual acuity ++ (number of eyes)", "setting": "cataract; [11]", "value": 1, "unit": "eyes"}, {"measurement": "improvement of the visual acuity ++ (number of eyes)", "setting": "cataract; groups 2 and 3, start acuity 20/200", "value": 1, "unit": "eyes"}, {"measurement": "improvement of the visual acuity + (number of eyes)", "setting": "cataract; [12]", "value": 5, "unit": "eyes"}, {"measurement": "improvement of the visual acuity ++ (number of eyes)", "setting": "cataract; [12]", "value": 11, "unit": "eyes"}, {"measurement": "improvement of the visual acuity +++ (number of eyes)", "setting": "cataract; [12]", "value": 2, "unit": "eyes"}, {"measurement": "regression of the visual acuity + (number of eyes)", "setting": "cataract; [12]", "value": 0, "unit": "eyes"}, {"measurement": "regression of the visual acuity ++ (number of eyes)", "setting": "cataract; [12]", "value": 1, "unit": "eyes"}, {"measurement": "regression of the visual acuity +++ (number of eyes)", "setting": "cataract; [12]", "value": 0, "unit": "eyes"}, {"measurement": "improvement of the vision and regression of cataract", "setting": "cataract; two parameters: visual acuity and opacity", "value": "very significant in the improvement of the vision and the regression of cataract"}]}
